Results reported in publication PMC10226132, “First-in-Class Selective Inhibitors of the Lysine Acetyltransferase KAT8” (Journal of Medicinal Chemistry, 2023).

What was measured:
KAT8 [1] = target: T1, KAT8 (Homo sapiens, UniProt Q9H7Z6); assay: Preincubation and jump-dilution analysis of KAT8 mode of inhibition; format: biochemical; conditions: for time-dependent inhibition of KAT8 (preincubation assay): 12.5 μM inhibitor, preincubation 5-120 min; for KAT8 activity regained after inhibitor dilution (jump-dilution): 10× IC50 (121 μM for 19, 81 μM for 34), 100-fold dilution, any timepoint 10-240 min
T1 construct: using the previously purified KAT8 (173–458, 5 nM); 6xHis tag with TEV protease cleavage site (N, cleaved yes); made in house; host or cells: E. coli BL21(DE3)
T1 sequence (Q9H7Z6 173-458): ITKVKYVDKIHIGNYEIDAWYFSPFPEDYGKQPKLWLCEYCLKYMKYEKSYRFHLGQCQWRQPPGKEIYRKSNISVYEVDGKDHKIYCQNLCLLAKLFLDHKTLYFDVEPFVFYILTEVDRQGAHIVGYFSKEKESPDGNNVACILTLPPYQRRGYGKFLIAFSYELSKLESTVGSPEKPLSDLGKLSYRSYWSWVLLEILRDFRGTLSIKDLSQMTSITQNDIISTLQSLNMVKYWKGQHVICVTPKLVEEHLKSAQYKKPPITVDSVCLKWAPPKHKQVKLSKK
Method: The preincubation assay was performed by incubating KAT8 with the relevant inhibitor (12.5 μM final concentration) for 5, 10, 20, 30, 60, and 120 min at rt. The activity of KAT8 was then measured as described in the “Radioactive KAT8 inhibition assay” paragraph of the Experimental Section. […] Fifty microliters were then incubated at rt for 10, 20, 30, 60, 120, and 240 min, and the mixtures were then processed as described in the “Radioactive KAT8 inhibition assay” paragraph of the Experimental section. Radioactive signal was normalized to the DMSO control reaction incubated for 240 min, converted in percent of KAT8 activity after 240 min, and plotted against each measurement time point. Experiments were performed in biological triplicates.

KAT8 [2] = target: T2, KAT8 (Homo sapiens, UniProt Q9H7Z6); assay: CETSA target engagement in HT29 cells; format: cell-based; conditions: 100 μM, 4 h, 59 °C
T2 construct: endogenous in cells; host or cells: HT29
Method: Target engagement in cells was determined by CETSA.[65],[66] For CETSA experiments with cells treated in culture, ∼1 × 10^6 HT29 were treated with DMSO (0.5% v/v final) or 100 μM compound for 4 h at 37 °C and 5% CO2 in a humidified incubator. The cells were harvested, washed twice with PBS, and resuspended in PBS with protease inhibitors. The cell suspensions were then distributed into PCR tubes, heated at the indicated temperature in a SimpliAmp Thermal Cycler (Applied Biosystems) for 3 min, and then cooled for another 3 min at rt. The cell suspensions were then lysed by freeze-thawing three times with 3 min incubations in an ethanol/dry ice bath and water bath at 37 °C. The lysates were then centrifuged at 20,000×g for 30 min at 4 °C to remove cellular debris and protein aggregates, and lysates were prepared for WB analysis. Proteins were separated by SDS-PAGE on 13.5% gels and were transferred to nitrocellulose membranes (Biorad Laboratories). Membranes were blocked for 1 h and incubated overnight with the appropriate primary antibody at 4 °C. After incubation, membranes were washed and incubated with the appropriate secondary antibody (Biorad Laboratories) for 1 h at room temperature. […] The band signals were quantified using ImageJ and values normalized to the 37 °C DMSO control.
T2 sequence (Q9H7Z6 whole entry): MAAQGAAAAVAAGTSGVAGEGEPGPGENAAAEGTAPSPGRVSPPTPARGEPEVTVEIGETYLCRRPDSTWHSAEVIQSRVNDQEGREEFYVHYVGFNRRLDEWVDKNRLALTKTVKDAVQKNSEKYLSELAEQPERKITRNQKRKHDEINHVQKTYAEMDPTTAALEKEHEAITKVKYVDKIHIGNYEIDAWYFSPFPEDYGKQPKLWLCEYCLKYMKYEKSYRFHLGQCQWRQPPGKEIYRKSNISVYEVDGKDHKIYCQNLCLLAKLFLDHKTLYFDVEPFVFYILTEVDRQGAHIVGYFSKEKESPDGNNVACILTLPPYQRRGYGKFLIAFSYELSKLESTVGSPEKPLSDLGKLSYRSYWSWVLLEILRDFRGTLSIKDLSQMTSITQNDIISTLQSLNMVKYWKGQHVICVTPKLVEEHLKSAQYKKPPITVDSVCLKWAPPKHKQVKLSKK

HeLa cells [3] = assay: MTT cell proliferation assay, HeLa; format: cell-based, human; conditions: 10, 25, 50, 100 μM, 72 h
Excerpt: (§1) Human commercially available AML U937, breast cancer MCF7, lung adenocarcinoma NCI-H460, H1299 and A-549, glioblastoma U251, B lymphocyte AHH1 cell lines were maintained in compete 10% foetal bovine serum (FBS,) RPMI 1640 (Euroclone, Milan, IT) medium. Human commercially available colon cancer HCT116 and HT29 lines and cervix adenocarcinoma HeLa cells were maintained in compete 10% FBS Dulbecco’s Modified Eagle Medium (DMEM) high glucose medium (Euroclone). L-Glutamine, FBS, and penicillin streptomycin mixture added to medium were obtained from Euroclone. All cell lines were cultured at 37 °C in a humidified atmosphere of 5% CO2:95% air and were tested for mycoplasma contamination routinely by RT-PCR.
(§2) For analysis of cell proliferation, cells were plated in sextuplicate on 96-well plates in complete media. After 24 h, cells were exposed to different drugs for 72 h. The inhibitory effect of different drugs was assessed by MTT (Sigma, St. Louis, MO, USA) colorimetric assays as previously reported.[67] Aqueous DMSO (0.5% v/v) was used as a control (untreated). The results are reported as “viability of drug-treated cells/viability of untreated cells” × 100 and represent the average ±SD of three independent experiments. IC50 values were using fitted by nonlinear regression using GraphPad Prism 8.0.

A549 cells = assay: MTT cell proliferation assay, A549; format: cell-based, human; conditions: for antiproliferative activity in A549: 10, 25, 50, 100 μM; for IC50: 72 h treatment, MTT
Excerpt: as §1, §2

MCF7 cells = assay: MTT cell proliferation assay, MCF7; format: cell-based, human; conditions: 10, 25, 50, 100 μM, 72 h
Excerpt: as §1, §2

U251 cells = assay: MTT cell proliferation assay, U251; format: cell-based, human; conditions: 10, 25, 50, 100 μM, 72 h
Excerpt: as §1, §2

HeLa cells [4] = assay: Cell cycle analysis by propidium iodide staining, HeLa; format: cell-based, human; conditions: 72 h
Method: (§3) For the analysis of the progression of cells through cell cycle phases and sub-G1 peak identification, 24 h after plating, cells were treated with the different compounds. After 72 h, both floating and adherent cells were collected and fixed with cold 70% ethanol. At least 24 h after fixation, cells were incubated with 0.025 mg/mL Propidium Iodide for 15 min at room temperature and analyzed. For Annexin V analysis, 24 h after plating, cells were treated with 50 and 100 μM of the compounds. In the case of chloroquine experiments, 10 μM chloroquine (Sigma-Aldrich, A9165) was added 30 min before compounds. 72 h after treatment, both floating and adherent cells were collected and stained with an Annexin V-FITC apoptosis detection kit (ENZO #ALX-850-020-KI). Samples were incubated 15 min in the dark at rt, and 10,000 events were then analyzed.

HT29 cells = assay: Annexin V/PI analysis, HT29; format: cell-based, human; conditions: 50 and 100 μM, 72 h, compared to control
Method: as §3

HeLa cells [5] = assay: Annexin V/PI analysis, HeLa; format: cell-based, human; conditions: 50 and 100 μM, 72 h, compared to control
Method: as §3

For O=C(O)c1ccc(N2N=C(c3ccccc3)/C(=C/c3ccc[nH]3)C2=O)cc1 [Compound 34, (Z)-4-(4-((1H-Pyrrol-2-yl)methylene)-5-oxo-3-phenyl-4,5-dihydro-1H-pyrazol-1-yl)benzoic Acid], the “time-dependent inhibition of KAT8 (preincubation assay)” value (KAT8 [1]) was “did not observe time-dependent inhibition”, the “KAT8 activity regained after inhibitor dilution (jump-dilution)” value (KAT8 [1]) was ~90% and the “target engagement (stabilization of KAT8 against thermal-induced aggregation)” value (KAT8 [2]) was “stabilize KAT8 against thermal-induced aggregation”. The “antiproliferative activity in HeLa” value (HeLa cells [3]) was “a certain degree of antiproliferative activity”, the “antiproliferative activity in A549” value (A549 cells; 72 h) was “dose-dependent antiproliferative effects” and the inhibition at 50 µM (A549 cells; Homo sapiens, A549, 50 μM, 72 h) was ~65%. The inhibition at 100 µM (A549 cells; Homo sapiens, A549, 100 μM, 72 h) was ~80%, the IC50 (A549 cells; Homo sapiens, A549) was 33 ± 5.7 µM and the “antiproliferative activity in MCF7” value (MCF7 cells) was “neither inhibitor had any effect”. The “antiproliferative activity in U251” value (U251 cells) was “neither inhibitor had any effect”, the “change in the different stages of cell cycle, HeLa” value (HeLa cells [4]) was “no significative change” and the “apoptotic cell population (Annexin V), HT29” value (HT29 cells) was “only a slight increase in apoptotic cell population”. The “apoptotic cell population (Annexin V), HeLa” value (HeLa cells [5]) was “only a slight increase in apoptotic cell population”.

For CC1=NN(c2ccc(C(=O)O)cc2)C(=O)/C1=C\c1ccc[nH]1 [Compound 19, (Z)-4-(4-((1H-Pyrrol-2-yl)methylene)-3-methyl-5-oxo-4,5-dihydro-1H-pyrazol-1-yl)benzoic Acid], the “time-dependent inhibition of KAT8 (preincubation assay)” value (KAT8 [1]) was “did not observe time-dependent inhibition”, the “KAT8 activity regained after inhibitor dilution (jump-dilution)” value (KAT8 [1]) was ~90% and the “target engagement (stabilization of KAT8 against thermal-induced aggregation)” value (KAT8 [2]) was “stabilize KAT8 against thermal-induced aggregation”. The “antiproliferative activity in HeLa” value (HeLa cells [3]) was “a certain degree of antiproliferative activity”, the “antiproliferative activity in A549” value (A549 cells; 72 h) was “dose-dependent antiproliferative effects” and the IC50 (A549 cells; Homo sapiens, A549) was 41 ± 9.8 µM. The “antiproliferative activity in MCF7” value (MCF7 cells) was “neither inhibitor had any effect”, the “antiproliferative activity in U251” value (U251 cells) was “neither inhibitor had any effect” and the “change in the different stages of cell cycle, HeLa” value (HeLa cells [4]) was “no significative change”. For the same compound, the “apoptotic cell population (Annexin V), HT29” value (HT29 cells) was “only a slight increase in apoptotic cell population” and the “apoptotic cell population (Annexin V), HeLa” value (HeLa cells [5]) was “only a slight increase in apoptotic cell population”.
